Results taken from ChEMBL document CHEMBL1143950, “Antifungal and cytotoxic activities of some N-substituted aniline derivatives bearing a hetaryl fragment” (Bioorg Med Chem, 2008).
≈ marks a conversion by molar mass, not a printed value.

System: Candida albicans
Assay: Antifungal activity against Candida albicans ATCC 10231 by micro-broth dilution method
Format: functional

| SMILES | MIC [µg/mL] |
| --- | --- |
| Cc1cc(C)cc(NCc2ccncc2)c1 | 250 (≈ 1180 µM) |
| Cn1cccc1CNc1ccc(Cl)cc1 | > 250 |
| CC(=O)N1CCN(c2ccc(OC[C@H]3CO[C@](Cn4ccnc4)(c4ccc(Cl)cc4Cl)O3)cc2)CC1 [KETOCONAZOLE] | 0.5 (≈ 0.941 µM) |
| c1ccc(NCc2ccco2)cc1 | 250 (≈ 1440 µM) |
| N#CC(Nc1ccccc1)c1ccoc1 (stereo not given) | > 250 |
| COc1ccc(NCc2ccco2)cc1 | > 250 |

Now from value to molecule:

| MIC [µg/mL] | SMILES |
| --- | --- |
| > 250 | C=CCC(Nc1ccc(Cl)cc1)c1ccoc1 (stereo not given) |
| 125 (≈ 602 µM) | Clc1ccc(NCc2ccoc2)cc1 |
| > 250 | C=CCC(Nc1ccc(OC)cc1)c1ccncc1 (stereo not given) |

System: Candida tropicalis
Assay: Antifungal activity against Candida tropicalis C131 by micro-broth dilution method
Format: functional

| SMILES | MIC [µg/mL] |
| --- | --- |
| Cc1cc(C)cc(NCc2ccncc2)c1 | 250 (≈ 1180 µM) |
| Cn1cccc1CNc1ccc(Cl)cc1 | > 250 |
| CC(=O)N1CCN(c2ccc(OC[C@H]3CO[C@](Cn4ccnc4)(c4ccc(Cl)cc4Cl)O3)cc2)CC1 [KETOCONAZOLE] | 0.125 (≈ 0.235 µM) |
| c1ccc(NCc2ccco2)cc1 | 250 (≈ 1440 µM) |
| N#CC(Nc1ccccc1)c1ccoc1 (stereo not given) | > 250 |
| COc1ccc(NCc2ccco2)cc1 | > 250 |

Results, then the molecule that gave them:

| MIC [µg/mL] | SMILES |
| --- | --- |
| > 250 | C=CCC(Nc1ccc(Cl)cc1)c1ccoc1 (stereo not given) |
| 125 (≈ 602 µM) | Clc1ccc(NCc2ccoc2)cc1 |
| > 250 | C=CCC(Nc1ccc(OC)cc1)c1ccncc1 (stereo not given) |

System: Saccharomyces cerevisiae
Assay: Antifungal activity against Saccharomyces cerevisiae ATCC 9763 by microbroth dilution method
Format: functional

| SMILES | MIC [µg/mL] |
| --- | --- |
| Cc1cc(C)cc(NCc2ccncc2)c1 | 250 (≈ 1180 µM) |
| Cn1cccc1CNc1ccc(Cl)cc1 | > 250 |
| CC(=O)N1CCN(c2ccc(OC[C@H]3CO[C@](Cn4ccnc4)(c4ccc(Cl)cc4Cl)O3)cc2)CC1 [KETOCONAZOLE] | 0.5 (≈ 0.941 µM) |
| c1ccc(NCc2ccco2)cc1 | > 250 |
| N#CC(Nc1ccccc1)c1ccoc1 (stereo not given) | > 250 |
| COc1ccc(NCc2ccco2)cc1 | > 250 |

The remaining lines, values ahead:

| MIC [µg/mL] | SMILES |
| --- | --- |
| > 250 | C=CCC(Nc1ccc(Cl)cc1)c1ccoc1 (stereo not given) |
| 125 (≈ 602 µM) | Clc1ccc(NCc2ccoc2)cc1 |
| > 250 | C=CCC(Nc1ccc(OC)cc1)c1ccncc1 (stereo not given) |

System: Cryptococcus neoformans
Assay: Antifungal activity against Cryptococcus neoformans ATCC 32264 by microbroth dilution method
Format: functional

| SMILES | MIC [µg/mL] |
| --- | --- |
| Cc1cc(C)cc(NCc2ccncc2)c1 | 50 (≈ 236 µM) |
| Cn1cccc1CNc1ccc(Cl)cc1 | 125 (≈ 566 µM) |
| CC(=O)N1CCN(c2ccc(OC[C@H]3CO[C@](Cn4ccnc4)(c4ccc(Cl)cc4Cl)O3)cc2)CC1 [KETOCONAZOLE] | 0.25 (≈ 0.47 µM) |
| c1ccc(NCc2ccco2)cc1 | 250 (≈ 1440 µM) |
| N#CC(Nc1ccccc1)c1ccoc1 (stereo not given) | > 250 |
| COc1ccc(NCc2ccco2)cc1 | > 250 |

Further lines, results first:

| MIC [µg/mL] | SMILES |
| --- | --- |
| 125 (≈ 505 µM) | C=CCC(Nc1ccc(Cl)cc1)c1ccoc1 (stereo not given) |
| 62.5 (≈ 301 µM) | Clc1ccc(NCc2ccoc2)cc1 |
| > 250 | C=CCC(Nc1ccc(OC)cc1)c1ccncc1 (stereo not given) |

System: Aspergillus fumigatus
Assay: Antifungal activity against Aspergillus fumigatus ATCC 26934 by micro-broth dilution method
Format: functional

| SMILES | MIC [µg/mL] |
| --- | --- |
| Cc1cc(C)cc(NCc2ccncc2)c1 | 100 (≈ 471 µM) |
| Cn1cccc1CNc1ccc(Cl)cc1 | > 250 |
| CC(=O)N1CCN(c2ccc(OC[C@H]3CO[C@](Cn4ccnc4)(c4ccc(Cl)cc4Cl)O3)cc2)CC1 [KETOCONAZOLE] | 0.125 (≈ 0.235 µM) |
| c1ccc(NCc2ccco2)cc1 | 62.5 (≈ 361 µM) |
| N#CC(Nc1ccccc1)c1ccoc1 (stereo not given) | > 250 |
| COc1ccc(NCc2ccco2)cc1 | 250 (≈ 1230 µM) |

Now from value to molecule:

| MIC [µg/mL] | SMILES |
| --- | --- |
| > 250 | C=CCC(Nc1ccc(Cl)cc1)c1ccoc1 (stereo not given) |
| 62.5 (≈ 301 µM) | Clc1ccc(NCc2ccoc2)cc1 |
| > 250 | C=CCC(Nc1ccc(OC)cc1)c1ccncc1 (stereo not given) |

System: Aspergillus flavus
Assay: Antifungal activity against Aspergillus flavus ATCC 9170 by micro-broth dilution method
Format: functional

| SMILES | MIC [µg/mL] |
| --- | --- |
| Cc1cc(C)cc(NCc2ccncc2)c1 | 200 (≈ 942 µM) |
| Cn1cccc1CNc1ccc(Cl)cc1 | > 250 |
| CC(=O)N1CCN(c2ccc(OC[C@H]3CO[C@](Cn4ccnc4)(c4ccc(Cl)cc4Cl)O3)cc2)CC1 [KETOCONAZOLE] | 0.5 (≈ 0.941 µM) |
| c1ccc(NCc2ccco2)cc1 | 100 (≈ 577 µM) |
| N#CC(Nc1ccccc1)c1ccoc1 (stereo not given) | > 250 |
| COc1ccc(NCc2ccco2)cc1 | 250 (≈ 1230 µM) |

More lines, now with the values ahead:

| MIC [µg/mL] | SMILES |
| --- | --- |
| > 250 | C=CCC(Nc1ccc(Cl)cc1)c1ccoc1 (stereo not given) |
| 62.5 (≈ 301 µM) | Clc1ccc(NCc2ccoc2)cc1 |
| > 250 | C=CCC(Nc1ccc(OC)cc1)c1ccncc1 (stereo not given) |

System: Trichophyton rubrum
Assay: Antifungal activity against Trichophyton rubrum C113 by microbroth dilution method
Format: functional

| SMILES | MIC [µg/mL] |
| --- | --- |
| Cc1cc(C)cc(NCc2ccncc2)c1 | 25 (≈ 118 µM) |
| Cn1cccc1CNc1ccc(Cl)cc1 | 250 (≈ 1130 µM) |
| CC(=O)N1CCN(c2ccc(OC[C@H]3CO[C@](Cn4ccnc4)(c4ccc(Cl)cc4Cl)O3)cc2)CC1 [KETOCONAZOLE] | 0.025 (≈ 0.047 µM) |
| c1ccc(NCc2ccco2)cc1 | 100 (≈ 577 µM) |
| N#CC(Nc1ccccc1)c1ccoc1 (stereo not given) | 250 (≈ 1260 µM) |
| COc1ccc(NCc2ccco2)cc1 | 100 (≈ 492 µM) |

Results, then the molecule that gave them:

| MIC [µg/mL] | SMILES |
| --- | --- |
| 62.5 (≈ 252 µM) | C=CCC(Nc1ccc(Cl)cc1)c1ccoc1 (stereo not given) |
| 62.5 (≈ 301 µM) | Clc1ccc(NCc2ccoc2)cc1 |
| 125 (≈ 491 µM) | C=CCC(Nc1ccc(OC)cc1)c1ccncc1 (stereo not given) |

System: Aspergillus niger
Assay: Antifungal activity against Aspergillus niger ATCC 9029 by micro-broth dilution method
Format: functional

| SMILES | MIC [µg/mL] |
| --- | --- |
| Cc1cc(C)cc(NCc2ccncc2)c1 | 100 (≈ 471 µM) |
| Cn1cccc1CNc1ccc(Cl)cc1 | > 250 |
| CC(=O)N1CCN(c2ccc(OC[C@H]3CO[C@](Cn4ccnc4)(c4ccc(Cl)cc4Cl)O3)cc2)CC1 [KETOCONAZOLE] | 0.25 (≈ 0.47 µM) |
| c1ccc(NCc2ccco2)cc1 | 100 (≈ 577 µM) |
| N#CC(Nc1ccccc1)c1ccoc1 (stereo not given) | > 250 |
| COc1ccc(NCc2ccco2)cc1 | 250 (≈ 1230 µM) |

The remaining lines, values ahead:

| MIC [µg/mL] | SMILES |
| --- | --- |
| > 250 | C=CCC(Nc1ccc(Cl)cc1)c1ccoc1 (stereo not given) |
| 62.5 (≈ 301 µM) | Clc1ccc(NCc2ccoc2)cc1 |
| > 250 | C=CCC(Nc1ccc(OC)cc1)c1ccncc1 (stereo not given) |

System: Nannizzia gypsea
Assay: Antifungal activity against Microsporum gypseum C115 by microbroth dilution method
Format: functional

| SMILES | MIC [µg/mL] |
| --- | --- |
| Cc1cc(C)cc(NCc2ccncc2)c1 | 25 (≈ 118 µM) |
| Cn1cccc1CNc1ccc(Cl)cc1 | > 250 |
| CC(=O)N1CCN(c2ccc(OC[C@H]3CO[C@](Cn4ccnc4)(c4ccc(Cl)cc4Cl)O3)cc2)CC1 [KETOCONAZOLE] | 0.05 (≈ 0.0941 µM) |
| c1ccc(NCc2ccco2)cc1 | 100 (≈ 577 µM) |
| N#CC(Nc1ccccc1)c1ccoc1 (stereo not given) | > 250 |
| COc1ccc(NCc2ccco2)cc1 | 100 (≈ 492 µM) |

Continued, values first:

| MIC [µg/mL] | SMILES |
| --- | --- |
| 62.5 (≈ 252 µM) | C=CCC(Nc1ccc(Cl)cc1)c1ccoc1 (stereo not given) |
| 125 (≈ 602 µM) | Clc1ccc(NCc2ccoc2)cc1 |
| 62.5 (≈ 246 µM) | C=CCC(Nc1ccc(OC)cc1)c1ccncc1 (stereo not given) |

System: Trichophyton mentagrophytes
Assay: Antifungal activity against Trichophyton mentagrophytes ATCC 9972 by micro-broth dilution method
Format: functional

| SMILES | MIC [µg/mL] |
| --- | --- |
| Cc1cc(C)cc(NCc2ccncc2)c1 | 25 (≈ 118 µM) |
| Cn1cccc1CNc1ccc(Cl)cc1 | 250 (≈ 1130 µM) |
| CC(=O)N1CCN(c2ccc(OC[C@H]3CO[C@](Cn4ccnc4)(c4ccc(Cl)cc4Cl)O3)cc2)CC1 [KETOCONAZOLE] | 0.025 (≈ 0.047 µM) |
| c1ccc(NCc2ccco2)cc1 | 100 (≈ 577 µM) |
| N#CC(Nc1ccccc1)c1ccoc1 (stereo not given) | 250 (≈ 1260 µM) |
| COc1ccc(NCc2ccco2)cc1 | 50 (≈ 246 µM) |

Further lines, results first:

| MIC [µg/mL] | SMILES |
| --- | --- |
| 62.5 (≈ 252 µM) | C=CCC(Nc1ccc(Cl)cc1)c1ccoc1 (stereo not given) |
| 62.5 (≈ 301 µM) | Clc1ccc(NCc2ccoc2)cc1 |
| 125 (≈ 491 µM) | C=CCC(Nc1ccc(OC)cc1)c1ccncc1 (stereo not given) |
